Results: US7977327B2, “Substituted pyrrolidine derivative” (Daiichi Sankyo Company, Limited, priority 2004, dated 2011)
Converted amounts (≈) assume the structure as drawn.

Assays:
[1] = test system: Chinese hamster lung (CHL/IU) cells; experiment: Effect of inducing chromosomal aberration; assay type: cell-based; settings: for Percentile induction of structural aberration (TA %): 24 hours, CHL/IU cells
Method: From each sample solution, samples to be tested having a concentration of 1, 3, 10, 30, 50, and 100 μg/mL (as reduced to free form) were prepared. As a negative control, 0.1 mol/L NaOH was employed.
Chinese hamster lung (CHL/IU) cells in logarithmic growth phase were employed. The cells were treated in a culture solution containing each sample to be tested for 24 hours. Subsequently, a chromosome specimen was prepared from the thus-treated cells. The culture solution employed was an Eagle's MEM (product of NISSUI PHARMACEUTICAL CO., LTD.) medium containing 15% fetal bovine serum (15% FBS-MEM).
In each sample concentration, 100 cells during metaphase were observed, to thereby record types and numbers of the chromosomal aberration.

[2] = test system: Slc:ddY male mice; experiment: Effect of inducing convulsion, intracisternal administration to mice; assay type: in vivo; settings: i.cist., Probit method
Method: The compounds (Compound Nos. 1, 2, and 3) of the present invention and Comparative Compounds A and B were individually dissolved in 5% glucose, to thereby prepare several samples to be tested. Groups of six-week-old Slc:ddY male mice (body weight: 23.9 to 27.4 g), each group consisting of 6 mice, were employed in the test. Each of the above-prepared samples was administered intracisternally to each mouse belonging to each group at concentrations shown in Tables 2 and 3 (5 μL/mouse). During 30 minutes after administration, it was observed whether each mouse suffered convulsion or died in an individual cage. Administration was performed according to the method described by Ueda, et al. (Reference 1).
Reference 1: Ueda H, Amano H, Shiomi H, Takagi H: Comparison of the analgesic effects of various opioid peptides by a newly devised intracisternal injection technique in conscious mice. Eur J Pharmacol. 1979; 56: 265-8.
Significant difference test between groups was performed in terms of incidence of convulsion according to the Fisher's direct probability calculation method (one-sided test, level of significance: P<0.05). On the basis of percentile incidence of convulsion, CD50 (50% concentration for inducing convulsion) and 95% confidence limit were calculated by the Probit method.

[3] = test system: P. Vulgalis 08601; experiment: Antibacterial activity (MIC), standard method of the Japan Society of Chemotherapy; assay type: cell-based; settings: P. Vulgalis 08601; read-out: MIC
Method: (§1) The antimicrobial activities of the compounds of the present invention were determined according to a standard method designated by the Japan Society of Chemotherapy. The results are expressed by MIC (μg/mL) (Table 1). In Table 1, S. aureus 870307 and S. pneumonia J24 are quinolone-resistant bacteria.

[4] = test system: S. maltophilia IID 1275; experiment: as above; assay type: cell-based; settings: Stenotrophomonas maltophilia, IID1275; S. maltophilia IID 1275; read-out: MIC
Method: as §1

[5] = test system: P. aeruginosa 32104; experiment: as above; assay type: cell-based; settings: Pseudomonas aeruginosa; P. aeruginosa 32104; read-out: MIC
Method: as §1

[6] = test system: S. epidermidis 56500; experiment: as above; assay type: cell-based; settings: Staphylococcus epidermidis; S. epidermidis 56500; read-out: MIC
Method: as §1

[7] = test system: S. flexneri 2A 5503; experiment: as above; assay type: cell-based; settings: Shigella flexneri, 2A5503, read-out: MIC
Method: as §1

[8] = test system: S. aureus 870307; experiment: as above; assay type: cell-based; settings: Staphylococcus aureus; S. aureus 870307, quinolone-resistant; read-out: MIC
Method: as §1

[9] = test system: P. aeruginosa 32121; experiment: as above; assay type: cell-based; settings: Pseudomonas aeruginosa; P. aeruginosa 32121; read-out: MIC
Method: as §1

[10] = test system: S. pneumoniae J24; experiment: as above; assay type: cell-based; settings: Streptococcus pneumoniae; S. pneumoniae J24, quinolone-resistant; read-out: MIC
Method: as §1

[11] = test system: E. coli NIHJ; experiment: as above; assay type: cell-based; settings: Escherichia coli; E. coli NIHJ; read-out: MIC
Method: as §1

[12] = test system: E. faevcalis ATCC 19433; experiment: as above; assay type: cell-based; settings: E. faevcalis ATCC 19433; read-out: MIC
Method: as §1

[13] = test system: S. pyogenes G-36; experiment: as above; assay type: cell-based; settings: Streptococcus pyogenes, G36; S. pyogenes G-36; read-out: MIC
Method: as §1

[14] = test system: S. marcescens 10100; experiment: as above; assay type: cell-based; settings: Serratia marcescens; S. marcescens 10100; read-out: MIC
Method: as §1

[15] = test system: S. aureus FDA 209P; experiment: as above; assay type: cell-based; settings: Staphylococcus aureus, FDA209P; S. aureus FDA 209P; read-out: MIC
Method: as §1

[16] = test system: K. pneumoniae TYPE I; experiment: as above; assay type: cell-based; settings: Klebsiella pneumoniae; K. pneumoniae TYPE I; read-out: MIC
Method: as §1

For `CC[C@H]1CN(c2c(F)cc3c(=O)c(C(=O)O)cn4c3c2OC[C@@H]4C)C[C@H]1N` [Compound No. 3, (3S)-10-[(3S,4S)-3-Amino-4-ethylpyrrolidin-1-yl]-9-fluoro-2,3-dihydro-3-methyl-7-oxo-7H-pyrido[1,2,3-de][1,4]benzoxazine-6-carboxylic acid], the “Percentile induction of structural aberration (TA %)” value (shortened to “Percentile induction … (TA %)”) ([1]; 1 μg/mL) was 3%, the “Percentile induction … (TA %)” value ([1]; 3 μg/mL) was 0% and the “Percentile induction … (TA %)” value ([1]; 10 μg/mL) was 2%. The “Percentile induction … (TA %)” value ([1]; 30 μg/mL) was 1%, the “Percentile induction … (TA %)” value ([1]; 50 μg/mL) was 5% and the “Percentile induction … (TA %)” value ([1]; 100 μg/mL) was 9%. For the same compound, the “Significant increase in number of the cells exhibiting chromosomal aberration” value ([1]; at a concentration of up to 100 μg/mL) was “not observed”, the “CD50 (50% concentration for inducing convulsion), with 95% confidence limit” value [2] was 64.5 (47.7-80.8) μg/5 μL/mouse and the MIC [3] was 0.006 µg/mL (≈ 0.016 µM). The MIC [4] was 0.2 µg/mL (≈ 0.533 µM), the MIC [5] was 0.1 µg/mL (≈ 0.266 µM) and the MIC [6] was 0.05 µg/mL (≈ 0.133 µM). The MIC [7] was 0.006 µg/mL (≈ 0.016 µM), the MIC [8] was 0.78 µg/mL (≈ 2.08 µM) and the MIC [9] was 0.05 µg/mL (≈ 0.133 µM). It also gave an MIC [10] of 0.1 µg/mL (≈ 0.266 µM), an MIC [11] of 0.006 µg/mL (≈ 0.016 µM) and an MIC [12] of 0.1 µg/mL (≈ 0.266 µM). It also gave an MIC [13] of 0.1 µg/mL (≈ 0.266 µM), an MIC [14] of 0.025 µg/mL (≈ 0.0666 µM) and an MIC [15] of 0.012 µg/mL (≈ 0.032 µM). The MIC [16] was 0.05 µg/mL (≈ 0.133 µM).
